Reference: patent US20130029970A1 (priority 2009, published 2013)
Like-named read-outs stand apart in the source and are kept apart here.

Tests used:
human CB2 (hCB2) = target: T1, human CB2 (hCB2) (Homo sapiens, UniProt P34972); assay: 35S GTPγS binding assay, hCB2 agonist; assay type: biochemical
T1 construct: (cDNA clone) CNR0200000
Method: (§1) cDNA expression clones for human CB1 (hCB1, Genbank Accession No. AY225225) and human CB2 (hCB2, Genbank Accession No. AY242132) expressed in vector pcDNA3.1+ were purchased from UMR cDNA Resource Center, Rolla, Mo. (Clone ID CNR01L000 for hCB1; CNR0200000 for hCB2).
(§2) Membranes were isolated from transfected cells as follows. Monolayers of cultured cells were washed twice with phosphate-buffered saline (PBS). […] Homogenates were centrifuged 10 minutes at 1000×g at 4° C. The supernatant was collected and was centrifuged for 1 hour at 40,000×g. The supernatant was then decanted and the resulting pellet was re-suspended in 20 mM HEPES, pH 7.4, 5 mM MgCl2, 1 mM EDTA, 10% sucrose with complete cocktail protease inhibitors. Protein concentration of membrane suspensions were measured by Bradford Protein Assay using bovine serum albumin as the standard (BioRad catalog #500-0006). Protein concentrations of membrane suspensions were adjusted with the final buffer in the range of 5 to 10 mg/mL and were stored at −80° C. until further use.
(§3) Functional assays which monitor G-protein coupled receptor or downstream cellular responses can be used to characterize potential CB1 receptor and/or CB2 receptor agonist or antagonist activities. Direct activation (or inhibition of activation) can be monitored using a GTPγS assay (membrane-based assay) or cAMP assay (whole cell-based assay).
(§4) ^35S GTPγS binding assays were performed by incubating recombinant cell membranes prepared above (5 μg) in the presence of scintillation proximity assay beads (SPA beads, Catalog #RPNQ0252 GE Healthcare, Buckinghamshire, England) in GTPγS binding buffer [50 mM HEPES (pH 7.4), 100 mM NaCl, 5 mM MgCl2, 0.001% saponin (Sigma catalog #S4521)] supplemented with 20 uM GDP (Sigma catalog #G7127) in the presence or absence of test compound. The reaction was carried out in 96-well microplates with 0.1 nM [^35S]GTPγS (specific activity=1250 Ci/mmol; Perkin Elmer catalog #NEG030X250UC) in a final volume of 100 uL. After a 90 min room temperature incubation, the reaction was analyzed using a scintillation counter (Perkin Elmer Microbeta instrument). Binding data were analyzed using GraphPad Prism.

[1] = target: T2, recombinant human cannabinoid receptor CB2 (Homo sapiens, UniProt P34972); assay: Cannabinoid receptor radioligand binding assay, [3H]-CP 55,940 displacement, hCB2
T2 construct: (cDNA clone) CNR0200000
Method: as §2
A rapid filtration technique using Millipore FB filter plates (Catalog #MADVNOB) and filtration apparatus (Millipore system Catalog MAVM0960R) with vacuum aspiration was used to harvest and rinse labeled membranes (8 times with 0.2 mL of chilled binding buffer). […] Binding data were analyzed using GraphPad Prism (GraphPad Software, Inc. San Diego, Calif.).

[2] = target: T3, recombinant human cannabinoid receptor CB1 (Homo sapiens, UniProt P21554); assay: Cannabinoid receptor radioligand binding assay, [3H]-CP 55,940 displacement, hCB1
T3 construct: (cDNA clone) CNR01L000
Excerpt: (§5) Stable, HEK-293-derived cell lines that recombinantly express hCBI or hCB2 were established. In brief, the clone hCB1 (CNR IL) or hCB2 (CNR2) was transfected into human embryonic kidney cells (HEK-293) using Lipofectamine 2000 (Gibco, Cat#11668-019) according to the manufacturer's protocol. Transfected clones were isolated by single colony purification and clones were screened for receptor expression using a whole cell, ^3H—CP 55,940 radioligand binding assay. HEK-293 stable cells were maintained in Dulbecco's modified Eagles medium (DMEM) containing 10% fetal bovine serum, 2 mM L-glutamine and 0.5 mg/mL G-418.
(§6) Membranes were isolated from transfected cells as follows. Monolayers of cultured cells were washed twice with phosphate-buffered saline (PBS). Cells were scraped into 20 mM HEPES, pH 7.4, 10 mM EDTA containing complete cocktail protease inhibitors (Roche, Catalog #11 697 498 001) and were homogenized by an electric-powered mechanical probe homogenizer (Omni GLH; probe G7-195S) for 40 seconds at 7000 rpm. Homogenates were centrifuged 10 minutes at 1000×g at 4° C. The supernatant was collected and was centrifuged for 1 hour at 40,000×g. The supernatant was then decanted and the resulting pellet was re-suspended in 20 mM HEPES, pH 7.4, 5 mM MgCl2, 1 mM EDTA, 10% sucrose with complete cocktail protease inhibitors. Protein concentration of membrane suspensions were measured by Bradford Protein Assay using bovine serum albumin as the standard (BioRad catalog #500-0006). Protein concentrations of membrane suspensions were adjusted with the final buffer in the range of 5 to 10 mg/mL and were stored at −80° C. until further use.
Radioligand binding assays were performed by incubating membranes (2-10 μg protein) prepared from HEK-293 cells expressing recombinant human cannabinoid receptors, CB1 or CB2, at room temperature with 0.5 nM cannabinoid receptor agonist, [^3H]-CP 55,940 (Perkin Elmer, catalog #NET1051) in 0.2 mL of binding buffer (50 mM Tris-HCl, pH 7.5, 5 mM MgCl2, 2.5 mM EDTA) and 0.1% fatty acid free bovine serum albumin (Sigma Cat. #A0821) for 90 minutes. A rapid filtration technique using Millipore FB filter plates (Catalog #MADVNOB) and filtration apparatus (Millipore system Catalog MAVM0960R) with vacuum aspiration was used to harvest and rinse labeled membranes (8 times with 0.2 mL of chilled binding buffer). The radioactivity bound to the filters was counted with 0.05 mL of liquid scintillant (UltraGold MV, PerkinElmer catalog #6013159) in a scintillation counter (Perkin Elmer Microbeta instrument). Nonspecific binding was determined in the presence of unlabeled 1 μM CP 55,940 (Sigma Aldrich, catalog #C1112). Binding data were analyzed using GraphPad Prism (GraphPad Software, Inc. San Diego, Calif.).

human CB1 receptors = target: T4, human CB1 receptors (Homo sapiens, UniProt P21554); assay: cAMP assay in HEK-293 cells, hCB1 agonist; assay type: cell-based; conditions: inhibition of forskolin-stimulated cAMP, HEK-293 cells
T4 construct: (cDNA clone) CNR01L000
Excerpt: as §5, §3
(§7) cAMP assays were performed in HEK-293 cells stably expressing human CB1 or CB2 receptors. For cannabinoid receptor functional assays measuring agonist effects on cellular cAMP levels, monolayers of cultured cells were harvested with enzyme-free PBS-based cell dissociation buffer (Gibco, Cat#13151-04). Cells suspensions were centrifuged and the cells were washed once with PBS, were centrifuged again, and the cells were re-suspended in HBSS (Hank's Balanced Salt Solution, Cellgro, Cat #21-022-CV) solution containing 10 mM HEPES and 0.1% fatty acid free BSA (Sigma, Cat #A0281). Cell suspensions were prepared at 1,500,000 cells per ml. Stock solutions of test substances (10 mM) in DMSO were diluted to 1 mM using 30% DMSO as diluent. Test substances of solutions (1 mM) were further diluted down to 3× of final assay concentrations in the above HBSS buffer containing 0.1% BSA in the presence of 90 uM forskolin (Sigma Cat#F6886). To perform the assay, 20 uL of cell suspension (1,500,000 cells/mL) were added to each well in 96 well plate and treated with 10 uL test substance solution diluted as described above. Cells and compounds were incubated at 37° C. for 30 minutes. Cells were lysed and cAMP concentration was measured using DiscoveRx −XS+ cAMP assay kit (DiscoveRx Corporation Ltd., Fremont, Calif., USA, Cat #90-0075-03), following the manufacturer's protocol. GraphPad Prism software was used to calculate EC50 values using sigmoidal dose response curve fitting. The maximal amount of cAMP produced by forskolin was defined as 100%. CB1 or CB2 agonists reduced forskolin-stimulated cAMP signaling. The EC50 value of an agonist compound was defined as the concentration at which 50% of the forskolin-stimulated cAMP synthesis was inhibited.

human CB2 receptors = target: T5, human CB2 receptors (Homo sapiens, UniProt P34972); assay: cAMP assay in HEK-293 cells, hCB2 agonist; assay type: cell-based
T5 construct: (cDNA clone) CNR0200000
Method: as §3
as §7, with “For cannabinoid receptor functional assays measuring agonist effects on cellular cAMP levels, monolayers of cultured cells were harvested with enzyme-free PBS-based cell dissociation buffer (Gibco, Cat#13151-04).” left out, “100%.” for “100%. CB1 or CB2 agonists reduced forskolin-stimulated cAMP signaling. The EC50 value of an agonist compound was defined as the concentration at which 50% of the forskolin-stimulated cAMP synthesis was inhibited.”

human CB1 (hCB1) = target: T6, human CB1 (hCB1) (Homo sapiens, UniProt P21554); assay: 35S GTPγS binding assay, hCB1 agonist; assay type: biochemical; conditions: GTPγS agonist, HEK-293 membranes; read-out: hCB1 EC50 (GTPyS ag)
T6 construct: (cDNA clone) CNR01L000
Excerpt: as §1, §5, §6, §3, §4

T4 sequence (P21554 whole entry): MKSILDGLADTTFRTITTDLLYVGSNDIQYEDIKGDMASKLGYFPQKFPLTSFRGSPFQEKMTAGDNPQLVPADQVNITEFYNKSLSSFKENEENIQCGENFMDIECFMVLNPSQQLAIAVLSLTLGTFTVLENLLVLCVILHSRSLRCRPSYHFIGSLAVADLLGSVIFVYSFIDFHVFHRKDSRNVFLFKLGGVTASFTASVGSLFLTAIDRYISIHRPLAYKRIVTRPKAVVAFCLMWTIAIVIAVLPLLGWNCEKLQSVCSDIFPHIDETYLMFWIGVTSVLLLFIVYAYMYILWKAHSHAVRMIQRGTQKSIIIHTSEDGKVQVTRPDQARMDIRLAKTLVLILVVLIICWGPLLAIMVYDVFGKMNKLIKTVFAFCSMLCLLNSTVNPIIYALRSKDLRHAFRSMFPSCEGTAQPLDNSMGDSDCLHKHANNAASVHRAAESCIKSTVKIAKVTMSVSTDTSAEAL
T3 sequence (P21554 whole entry): as above
T5 sequence (P34972 whole entry): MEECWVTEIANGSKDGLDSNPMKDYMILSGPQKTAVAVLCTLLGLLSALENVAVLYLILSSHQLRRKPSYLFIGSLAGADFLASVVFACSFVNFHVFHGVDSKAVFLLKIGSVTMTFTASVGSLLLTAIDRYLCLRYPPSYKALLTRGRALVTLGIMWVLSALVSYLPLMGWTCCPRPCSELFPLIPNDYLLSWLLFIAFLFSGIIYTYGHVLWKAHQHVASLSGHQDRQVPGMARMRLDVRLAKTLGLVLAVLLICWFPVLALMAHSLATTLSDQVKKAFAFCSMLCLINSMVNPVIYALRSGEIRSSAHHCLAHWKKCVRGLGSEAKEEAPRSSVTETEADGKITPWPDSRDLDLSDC
T1 sequence (P34972 whole entry): as above
T2 sequence (P34972 whole entry): as above
T6 sequence (P21554 whole entry): as the sequence (P21554 whole entry) above

| SMILES | EC50 (human CB2 (hCB2)) | IC50 [1] | IC50 [2] | hCB1 EC50 (cAMP ag, nM) (human CB1 receptors) | hCB2 EC50 (cAMP ag, nM) (human CB2 receptors; inhibition of forskolin-stimulated cAMP, HEK-293 cells) | IC50 ([1]; displacement of 0.5 nM [3H]-CP 55,940, read-out: hCB2 IC50 (CP displ)) | IC50 ([2]; displacement of 0.5 nM [3H]-CP 55,940, read-out: hCB1 IC50 (CP displ)) | EC50 (human CB2 receptors) | EC50 (human CB2 (hCB2); GTPγS agonist, HEK-293 membranes, read-out: hCB2 EC50 (GTPyS ag)) | EC50 (human CB1 (hCB1)) |
| --- | --- | --- | --- | --- | --- | --- | --- | --- | --- | --- |
| Cc1cc2cc(C(=O)c3cccc(Cl)c3Cl)sc2n1C [Compound 20, (2,3-Dichlorophenyl)(5,6-dimethyl-6H-thieno[2,3-b]pyrrol-2-yl)methanone] | 0.1 to 1 µM | 1 to 10 µM | > 10 µM | NS (NS means “Not Significant,” which means less than 30% agonist activity when compared to the positive control.) | – | – | – | – | – | – |
| COc1ccc(C(=O)c2cc3cc(C)n(CCn4ccnc4)c3s2)cc1 [Compound 67, (6-(2-(1H-Imidazol-1-yl)ethyl)-5-methyl-6H-thieno[2,3-b]pyrrol-2-yl)(4-methoxyphenyl)methanone] | 0.1 to 1 µM | 1 to 10 µM | > 10 µM | NS (NS means “Not Significant,” which means less than 30% agonist activity when compared to the positive control.) | – | – | – | – | – | – |
| COc1ccc(C(=O)c2cc3cc(C)n(CCCN(C)S(C)(=O)=O)c3s2)cc1 [Compound 69, N-(3-(2-(4-Methoxybenzoyl)-5-methyl-6H-thieno[2,3-b]pyrrol-6-yl)propyl)-N-methylmethanesulfonamide] | 0.1 to 1 µM | 1 to 10 µM | > 10 µM | NS (NS means “Not Significant,” which means less than 30% agonist activity when compared to the positive control.) | – | – | – | – | – | – |
| COc1ccc(C(=O)c2cc3cc(C)n(CCN4CCN(S(C)(=O)=O)CC4)c3s2)cn1 [Compound 143, (6-methoxypyridin-3-yl)(5-methyl-6-(2-(4-(methylsulfonyl)piperazin-1-yl)ethyl)-6H-thieno[2,3-b]pyrrol-2-yl)methanone] | – | – | – | NS (NS means “Not Significant,” which means less than 30% agonist activity when compared to the positive control.) | NS (NS means “Not Significant,” which means less than 30% agonist activity when compared to the positive control.) | > 10 µM | > 10 µM | – | – | – |
| COc1ccc(C(=O)c2cc3cc(C)n(CCN4CCCC4C(=O)O)c3s2)cn1 (stereo not drawn) [Compound 146, 1-(2-(2-(6-methoxynicotinoyl)-5-methyl-6H-thieno[2,3-b]pyrrol-6-yl)ethyl)pyrrolidine-2-carboxylic acid] | – | 0.1 to 1 µM | > 10 µM | NS (NS means “Not Significant,” which means less than 30% agonist activity when compared to the positive control.) | – | – | – | 0.1 to 1 µM | – | – |
| COc1ccc(C(=O)c2cc3cc(C)n(CCNCC4CCOCC4)c3s2)cn1 [Compound 149, (6-methoxypyridin-3-yl)(5-methyl-6-(2-((tetrahydro-2H-pyran-4-yl)methylamino)ethyl)-6H-thieno[2,3-b]pyrrol-2-yl)methanone] | – | > 10 µM | > 10 µM | NS (NS means “Not Significant,” which means less than 30% agonist activity when compared to the positive control.) | – | – | – | 0.1 to 1 µM | – | – |
| COc1ccc(C(=O)c2cc3cc(C)n(C(=S)SC)c3s2)cc1 [Compound 155, Methyl 2-(4-methoxybenzoyl)-5-methyl-6H-thieno[2,3-b]pyrrole-6-carbodithioate] | – | – | – | NS (NS means “Not Significant,” which means less than 30% agonist activity when compared to the positive control.) | – | – | – | – | 0.1 to 1 µM | > 10 µM |
| COc1ccc(C(=O)c2cc3cc(C)n(CCN4CCC(OC)CC4)c3s2)cn1 [Compound 156, (6-(2-(4-methoxypiperidin-1-yl)ethyl)-5-methyl-6H-thieno[2,3-b]pyrrol-2-yl)(6-methoxypyridin-3-yl)methanone] | > 10 µM | – | – | NS (NS means “Not Significant,” which means less than 30% agonist activity when compared to the positive control.) | – | – | – | – | – | > 10 µM |
